Measured values reported in patent US11053204B2, “Pyrimidinyloxy benzene derivatives as herbicides” (FMC Corporation, priority 2015, dated 2021).

Columns and labels:
Assay type in all cases: in vivo
[1] = tested on: Italian ryegrass (Lolium multiflorum); experiment: Test A preemergence, visual injury rating; conditions: Lolium multiflorum, pre-emergence, 240 h, 0 to 100 scale (0 no effect, 100 complete control), read-out: Ryegrass, Italian plant response rating
Procedure, shortened: (§1)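 Compounds in non-phytotoxic solvent with surfactant applied as soil spray preemergence, or postemergence to plants 2-10 cm at one- to two-leaf stage, in loam/sand. After approximately 10 days in greenhouse, injury rated visually versus untreated controls, 0 (no effect) to 100 (complete control).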

[2] = tested on: barnyardgrass (Echinochloa crus-galli); experiment: Test A preemergence, visual injury rating; conditions: Echinochloa crus-galli, pre-emergence, 240 h, 0 to 100 scale (0 no effect, 100 complete control), read-out: Barnyardgrass plant response rating
Procedure, shortened: as §1

[3] = tested on: giant foxtail (Setaria faberii); experiment: Test A preemergence, visual injury rating; conditions: Setaria faberi, pre-emergence, 240 h, 0 to 100 scale (0 no effect, 100 complete control), read-out: Foxtail, Giant plant response rating
Procedure, shortened: as §1

kochia (Kochia scoparia) [4] = experiment: Test A preemergence, visual injury rating; conditions: Bassia scoparia, pre-emergence, 240 h, 0 to 100 scale (0 no effect, 100 complete control), read-out: Kochia plant response rating
Procedure, shortened: as §1

[5] = tested on: pigweed (Amaranthus retroflexus); experiment: Test A preemergence, visual injury rating; conditions: Amaranthus retroflexus, pre-emergence, 240 h, 0 to 100 scale (0 no effect, 100 complete control), read-out: Pigweed plant response rating
Procedure, shortened: as §1

[6] = tested on: ragweed (common ragweed, Ambrosia elatior); experiment: Test A preemergence, visual injury rating; conditions: Ambrosia artemisiifolia, pre-emergence, 240 h, 0 to 100 scale (0 no effect, 100 complete control), read-out: Ragweed plant response rating
Procedure, shortened: as §1

[7] = tested on: Italian ryegrass (Lolium multiflorum); experiment: Test A postemergence, visual injury rating; conditions: Lolium multiflorum, post-emergence, 240 h, 0 is no effect, 100 is complete control, read-out: Ryegrass, Italian plant response rating (0 to 100 scale)
Procedure, shortened: as §1

[8] = tested on: barnyardgrass (Echinochloa crus-galli); experiment: Test A postemergence, visual injury rating; conditions: Echinochloa crus-galli, post-emergence, 240 h, 0 is no effect, 100 is complete control, read-out: Barnyardgrass plant response rating (0 to 100 scale)
Procedure, shortened: as §1

[9] = tested on: blackgrass (Alopecurus myosuroides); experiment: Test A postemergence, visual injury rating; conditions: Alopecurus myosuroides, post-emergence, 240 h, 0 is no effect, 100 is complete control, read-out: Blackgrass plant response rating (0 to 100 scale)
Procedure, shortened: as §1

corn (Zea mays) = experiment: Test A postemergence, visual injury rating; conditions: Zea mays, post-emergence, 240 h, 0 is no effect, 100 is complete control, read-out: Corn plant response rating (0 to 100 scale)
Procedure, shortened: as §1

[10] = tested on: galium (catchweed bedstraw, Galium aparine); experiment: Test A postemergence, visual injury rating; conditions: Galium, post-emergence, 240 h, 0 is no effect, 100 is complete control, read-out: Galium plant response rating (0 to 100 scale)
Procedure, shortened: as §1

[11] = tested on: giant foxtail (Setaria faberii); experiment: Test A postemergence, visual injury rating; conditions: Setaria faberi, post-emergence, 240 h, 0 is no effect, 100 is complete control, read-out: Foxtail, Giant plant response rating (0 to 100 scale)
Procedure, shortened: as §1

kochia (Kochia scoparia) [12] = experiment: Test A postemergence, visual injury rating; conditions: Bassia scoparia, post-emergence, 240 h, 0 is no effect, 100 is complete control, read-out: Kochia plant response rating (0 to 100 scale)
Procedure, shortened: as §1

[13] = tested on: pigweed (Amaranthus retroflexus); experiment: Test A postemergence, visual injury rating; conditions: Amaranthus retroflexus, post-emergence, 240 h, 0 is no effect, 100 is complete control, read-out: Pigweed plant response rating (0 to 100 scale)
Procedure, shortened: as §1

[14] = tested on: ragweed (common ragweed, Ambrosia elatior); experiment: Test A postemergence, visual injury rating; conditions: Ambrosia artemisiifolia, post-emergence, 240 h, 0 is no effect, 100 is complete control, read-out: Ragweed plant response rating (0 to 100 scale)
Procedure, shortened: as §1

[15] = tested on: wheat (Triticum aestivum); experiment: Test A postemergence, visual injury rating; conditions: Triticum aestivum, post-emergence, 240 h, 0 is no effect, 100 is complete control, read-out: Wheat plant response rating (0 to 100 scale)
Procedure, shortened: as §1

[16] = tested on: barnyardgrass (Echinochloa crus-galli); experiment: Test B flooded paddy test, plant response rating; conditions: Echinochloa crus-galli, 312 h; 250 g ai/ha; Flood; scale of 0 to 100 where 0 is no effect and 100 is complete control; 13 to 15 days
Procedure, shortened: (§2)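 In-water treatment: compound dosed into 3 cm flood over soil, water level unchanged throughout. Controls run alongside; visual assessment at day 13–15.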

[17] = tested on: ducksalad (Heteranthera limosa); experiment: Test B flooded paddy test, plant response rating; conditions: Heteranthera limosa, 312 h; 250 g ai/ha; Flood; scale of 0 to 100 where 0 is no effect and 100 is complete control; 13 to 15 days
Procedure, shortened: as §2

rice (Oryza sativa) = experiment: Test B flooded paddy test, plant response rating; conditions: Oryza sativa, 312 h; 250 g ai/ha; Flood; scale of 0 to 100 where 0 is no effect and 100 is complete control; 13 to 15 days
Procedure, shortened: as §2

[18] = tested on: sedge, umbrella (small-flower umbrella sedge, Cyperus difformis); experiment: Test B flooded paddy test, plant response rating; conditions: Cyperus difformis, 312 h; 250 g ai/ha; Flood; scale of 0 to 100 where 0 is no effect and 100 is complete control; 13 to 15 days
Procedure, shortened: as §2

O=C(OCC(F)(F)C(F)(F)F)c1c(Br)cccc1Oc1ncc(Cl)cn1 [Compound 23, 2,2,3,3,3-pentafluoropropyl 2-bromo-6-[(5-chloro-2-pyrimidinyl)oxy]benzoate]
0%: pest or weed control at 125 g/ha ([1]; 125 g ai/ha) | pest or weed control at 125 g/ha (kochia (Kochia scoparia) [4]; 125 g ai/ha) | pest or weed control at 125 g/ha ([6]; 125 g ai/ha) | pest or weed control at 125 g/ha ([14]; 125 g ai/ha) | plant injury at 125 g/ha ([15]; 125 g ai/ha) | pest or weed control at 250 g/ha [16]
70%: pest or weed control at 500 g/ha ([2]; 500 g ai/ha) | pest or weed control at 125 g/ha ([3]; 125 g ai/ha) | pest or weed control at 500 g/ha ([7]; 500 g ai/ha)
20%: pest or weed control at 125 g/ha ([2]; 125 g ai/ha) | plant injury at 500 g/ha (corn (Zea mays); 500 g ai/ha)
30%: pest or weed control at 125 g/ha ([11]; 125 g ai/ha) | pest or weed control at 250 g/ha [17]
10%: pest or weed control at 500 g/ha ([6]; 500 g ai/ha) | pest or weed control at 125 g/ha ([7]; 125 g ai/ha) | pest or weed control at 125 g/ha ([8]; 125 g ai/ha) | pest or weed control at 125 g/ha ([9]; 125 g ai/ha) | plant injury at 125 g/ha (corn (Zea mays); 125 g ai/ha) | pest or weed control at 500 g/ha ([14]; 500 g ai/ha) | plant injury at 500 g/ha ([15]; 500 g ai/ha)
95%: pest or weed control at 250 g/ha [18]
50%: pest or weed control at 500 g/ha (kochia (Kochia scoparia) [4]; 500 g ai/ha) | pest or weed control at 500 g/ha ([8]; 500 g ai/ha) | pest or weed control at 500 g/ha ([9]; 500 g ai/ha)
90%: pest or weed control at 125 g/ha ([10]; 125 g ai/ha)
80%: pest or weed control at 500 g/ha ([11]; 500 g ai/ha) | pest or weed control at 125 g/ha (kochia (Kochia scoparia) [12]; 125 g ai/ha)
15%: plant injury at 250 g/ha (rice (Oryza sativa))
100%: pest or weed control at 500 g/ha ([3]; 500 g ai/ha) | pest or weed control at 125 g/ha ([5]; 125 g ai/ha) | pest or weed control at 500 g/ha ([5]; 500 g ai/ha) | pest or weed control at 500 g/ha ([10]; 500 g ai/ha) | pest or weed control at 500 g/ha (kochia (Kochia scoparia) [12]; 500 g ai/ha) | pest or weed control at 125 g/ha ([13]; 125 g ai/ha) | pest or weed control at 500 g/ha ([13]; 500 g ai/ha)
40%: pest or weed control at 500 g/ha ([1]; 500 g ai/ha)
